Measurements: patent publication US20250376480A1, “COMPOUND FOR LOSING WEIGHT AND IMPROVING GUT MICROBIOTA COMPOSITION AND COMPOSITION THEREOF” (SUNWAY BIOTECH CO., LTD., priority 2024, published 2025)
Marks after values point to notes of the source that are not given here.

How the values were obtained:
Format in all cases: in vivo, rat
[1] = system: obesity rats induced by high-fat feed; assay: Body weight change of obesity rats induced by high-fat feed
Description: (§1) Forty male rats of 8-week-old Sprague-Dawley (SD) strain were purchased from BioLASCO (Taipei, Taiwan) for the experiment. The growing environment was one with constant indoor temperature (25±1° C.), relative humidity of 60%, and 12 hours of cyclic light (light time from 8:00 to 20:00). The rats were acclimatized for four days before the formal experiment, then reared in 5 groups of 8 rats each for 8 weeks and were fed in an ad libitum feeding manner, and their body weight, food intake and water intake were measured at regular intervals during the experimental period.
The feeding dosage was calculated according to the method of “Estimating the maximum safe starting dose in initial clinical trials for therapeutics in adult healthy volunteers” published by the U.S. Food and Drug Administration in 2005. Provided that an adult of 60 kg was used as the base, the principle of dosage conversion is 6.2 times of the recommended daily intake of mg/kg bw/day for human as the recommended daily intake of mg/kg bw/day for rat, and the rat group is configured and fed with the dosage as shown in Table 1. The formulae are as follows: Dose intake per kilogram of body weight in rats=Recommended intake in humans÷Body weight 60 kg×6.2, and thus the daily dose intake per kilogram of body weight in rats can be calculated.
(§2) The experimental rats were divided into groups, and the obesity rats were induced by high-fat feed as follows (Please refer to Table 1). • i. NOR Group: Normal animal group. • ii. HF Group: High-fat control group including obesity rats induced by high-fat feed. • iii. RL Group: Obesity rats induced by high-fat feed and tube-fed daily with red yeast rice powder, equivalent to 0.5 g of red yeast rice containing 1.5 mg of Monascinol (compound having the structure of Formula (I)) per day consumed by an adult of 60 kg. • iv. RH Group: Obesity rats induced by high-fat feed and tube-fed red yeast rice powder daily, equivalent to 2 g of red yeast rice containing 6 mg of Monascinol (compound having the structure of Formula (I)) per day consumed by an adult of 60 kg. • V. Msol Group: Obesity rats induced by high-fat feed and tube-fed Monascinol (compound having the structure of Formula (I)) powder daily, equivalent to 3 mg of Monascinol (compound having the structure of Formula (I)) powder per day consumed by an adult of 60 kg.
(4) Test Substance Feeding Method: The test substance was administered orally by tube feeding, and the concentration of the test substance was adjusted by using reverse osmosis water. 2.0 mL of sterile plastic syringes with stainless steel feeding pins were used to feed each group of test substance daily. […]
The body weight of rats was measured weekly and the changes in body weight of each group were compared at the end of the experiment.

[2] = system: obesity rats induced by high-fat feed; assay: Liver weight and liver/body weight of high-fat diet rats
Description: as §1, §2
(§3) (4) Test Substance Feeding Method: The test substance was administered orally by tube feeding, and the concentration of the test substance was adjusted by using reverse osmosis water. 2.0 mL of sterile plastic syringes with stainless steel feeding pins were used to feed each group of test substance daily. Stainless steel feeding needles were soaked in 70% alcohol solution and rinsed with sterile distilled water several times before use. Each group of test animals was administered the test substance once a day for 8 weeks.
(§4) The animals fasted for 16 hours before sacrifice, and carbon dioxide was used for asphyxiation during sacrifice. After making sure that there was no heartbeat, blood was drawn and organs were collected. […] After blood collection, the needle was slowly withdrawn from the blood vessel and the blood was placed into a 2 mL eppendorf tube and centrifuged at 10,000×g for 10 min. The upper serum layer was separated into eppendorf tubes and stored in a −20° C. freezer for future analysis.

[3] = system: obesity rats induced by high-fat feed; assay: Body fat mass and body fat rate (perirenal and epididymal fat) of high-fat diet rats
Description: as §1, §2, §3
At the time of sacrifice, fatty tissues surrounding the kidneys and the epididymis (perirenal and epididymal fatty tissues) of the experimental animals were removed, and the their weights were measured and recorded. The body fat rate was calculated as follows: Body fat efficiency=(fat weight/body weight)×100%

[4] = system: obesity rats induced by high-fat feed; assay: Serum biochemical analysis (TC, TG) of high-fat diet rats
Description: as §2, §3
(5) Sacrificial Blood Sampling: At the 8th week, the rats fasted for 12-14 hours before blood sampling. […] Blood samples were centrifuged with the conditions of 4° C. and 3,000×g for 15 min.
as §4
The test was performed using a biochemical autoanalyzer (Model No.: Beckman-700, purchased from Fullerton, California, USA). The items measured were Total Cholesterol (TC), and Triglyceride (TG).

[5] = system: obesity rats induced by high-fat feed; assay: Liver lipid extraction and determination (TC, TG)
Description: as §2, §3
(§5) 0.1 g of liver tissue or fecal powder was weighed and 1 mL of chloroform:methanol (2:1, v/v volume ratio) was added, and homogenized with a tissue homogenizer and centrifuged to obtain the supernatant. The supernatant was then air-dried to remove the solvent, and the sample was dissolved by adding dimethyl sulfoxide (DMSO), and the extracts were kept at −20° C. The TC concentration was analyzed using a commercially available biochemical reagent (Model No. BXC 0261, Fortress), and the TG concentration was analyzed using a commercially available biochemical reagent (Model No. BXC 0271, Fortress), as per the kit instruction manual.

[6] = system: obesity rats induced by high-fat feed; assay: Fecal lipid extraction and determination (TC, TG)
Description: as §2, §3, §5

[7] = system: gut microbiota of high-fat diet rats; assay: Gut microbiota fecal analysis (full-length 16S sequencing) of high-fat diet rats
Description: About 0.3 g of fresh feces was collected into 1.5 mL of eppendorf before fasting for sacrifice, sealed with parafilm, stored at −80° C. for analysis, and sent to BioTools (New Taipei, Taiwan) for analysis.
Total genomic DNA (QIAamp PowerFecal DNA, Qiagen) was extracted from the samples. The DNA concentration was determined by Qubit 4.0 fluorometer (Thermo Scientific) and adjusted to 1 ng/μL. The full-length 16S gene (V1-V9 region) was amplified by 16S gene-specific primers with barcodes (Forward primer 1): 5′ Phos/GCATC-16-base barcode-Sequence ID Number 11, Reverse primer 1: 5′Phos/GCATC-16-base barcode—Sequence ID Number 12). PCR reactions were performed using KAPA HiFi HotStart ReadyMix (Roche): at 95° C. for 3 min. and 20-27 cycles (Sample Dependency): at 95° C. for 30 sec., at 57° C. for 30 sec., at 72° C. for 60 sec; at 72° C. for 5 min., and finally stored at 4° C. for future use. PCR products were monitored on 1% agarose gels. Samples of approximately 1500 bp bright bands were selected and purified by using AMPure PB Beads for SMRTbell library preparation.
SMRTbell libraries were prepared based on full-length 16S gene amplifications with barcoded primers used in the Multiplex SMRTbell Library Preparation and Sequencing Program (Pacbio). Sequencing was performed in circular consensus sequencing (CCS) mode on a PacBio Sequel Ile instrument, generating HiFi read with a Phred Scale=30. The DNA to be tested will be sequenced iteratively. By comparing the results of the reverse sequencing, sequencing errors will be corrected, ultimately achieving a high accuracy of >99.9% (QV30).
Information Analysis (Sequential data processing/denoising and species annotation) The sample data from the downstream data were sorted out according to the Barcode sequence and PCR amplification primer sequences. After the removal of the barcodes and primer sequences, the data were imported into QIIME2 (v2019.7.0; https://qiime2.org/) and all the sequences of the samples were saved into one corresponding object Artifacts. QIIME2 cutadapt was used to remove the amplicon variant primers (forward primer 2: Sequence ID Number 13; reverse primer 2: Sequence ID Number 14), and the sequence with the primers removed will be used as QIIME2 DADA2. Input Reads.
The denoising analysis began with the filtering of sequences, setting each sequence to be cropped to a specified length (forward reads: 280 bp; reverse reads: 220 bp) and setting the MaxEE (forward reads: 2; reverse reads: 2) parameter as the maximum number of expected error bases allowed for the sequence. This was followed by denoising, the core algorithm of DADA2 utilizing the information of sequence abundance, quality score, and relationships between sequences to correct the […] of sequencing errors and to infer the real sequences. Splicing was performed after denoising each end of the sequence (minimum overlap length 20 bp; overlap region was not allowed to be mismatched). Finally, the spliced sequences are subjected to chimera removal by comparing the sequences with higher abundance in the sample. If a sequence with low abundance is similar to several sequences, it can be recognized as a chimera and removed from the sample. Sequences after denoising analysis were used as representative sequences of Amplicon Sequence Variants (ASVs) and can be obtained from the ASV table for subsequent species annotation. The QIIME2 feature-classifier (v2019.7.0; https://qiime2.org/) was used to select machine learning-based classification methods and to train naïve bayes classifiers for different databases and specific variability regions. The taxonomic annotation of ASVs represented by this classifier yields taxonomic information and the composition of the microbial phyla of each sample at each classification level including kingdom, phylum, class, order, family, genus, and species.
Welch's t-test was analyzed by STAMP (v2.1.3), and the intergroup species differences were plotted as bar charts. […]

[8] = Msol: Monascinol 0.31 mg/kg BW/day (adult 3 mg/day), tube-fed 8 weeks, high-fat diet SD rats, mean±SD
[9] = p<0.05, 8 weeks, RL 0.5 g/day, RH 2 g/day, Msol 3 mg/day (adult equivalent)
[10] = 8 weeks, RL 0.5 g/day, RH 2 g/day, Msol 3 mg/day (adult equivalent)
[11] = vs HF group, 8 weeks, RL 0.5 g/day, RH 2 g/day, Msol 3 mg/day (adult equivalent)
[12] = FIGS. 9A-9D, high-fat diet rats, red yeast rice 0.5 and 2 g/day, Monascinol 3 mg/day
[13] = order level, FIG. 7C, high-fat diet rats, red yeast rice 0.5 and 2 g/day, Monascinol 3 mg/day
[14] = phylum level, FIG. 7A, high-fat diet rats, red yeast rice 0.5 and 2 g/day, Monascinol 3 mg/day

C/C=C/C1=CC2=C(CO1)C(=O)C1(C)OC(=O)C(C(O)CCCCC)C1C2 (stereo not drawn) [Msol, Monascinol]
Weight 8 week [1, 8]: 512.1 ± 31.1^a g
Weight gain [1, 8]: 220.8 ± 38.8^a g
Weight before Sacrifice ([1]; after fasting, Msol: Monascinol 0.31 mg/kg BW/day (adult 3 mg/day), tube-fed 8 weeks, high-fat diet SD rats, mean±SD): 488.5 ± 31.7^a g
weight gain compared with HF group [1, 9]: significantly reduced
liver-to-body-weight ratio compared with HF group [2, 10]: reduction
Liver Weight/Body Weight [2, 8]: 3.28 ± 0.37^b %
Liver weight [2, 8]: 16.84 2.31^b g
liver weight compared with HF group [2, 9]: significant decrease
Fat/body weight [3, 8]: 3.35 ± 0.55^b %
body fat mass compared with HF group [3, 9]: significantly reduced
body fat percentage compared with HF group [3, 9]: significantly reduced
Fat weight ([3]; perirenal and epididymal fat, Msol: Monascinol 0.31 mg/kg BW/day (adult 3 mg/day), tube-fed 8 weeks, high-fat diet SD rats, mean±SD): 17.95 3.55^b g
TC in serum [4, 8]: 65.0 ± 10.4^b mg/dL
TG in serum [4, 8]: 61.7 ± 10.7^a mg/dL
serum TC concentration compared with HF group [4, 9]: reduced
serum TG concentration compared with HF group ([4]; p<0.05, 8 weeks, red yeast rice at all doses (0.5 and 2 g/day), Msol 3 mg/day (adult equivalent)): significant reduction effect
hepatic TC levels compared with HF group [5, 10]: effective in reducing
Liver TC [5, 8]: 5.05 ± 0.54^a mg/g
Liver TG [5, 8]: 14.40 ± 1.57^a mg/g
liver TG content compared with HF group [5, 9]: significantly different from the HF group
Feces TC [6, 8]: 46.22 ± 4.72^c mg/g
Feces TG [6, 8]: 61.27 4.80^cd mg/g
accumulation of TG in the body (from fecal TG content) [6, 11]: effective in reducing
excretion of TC (feces) [6, 11]: significantly promoted
F/B ratio (abundance ratio of Firmicutes to Bacteroidetes) ([7]; FIG. 7A, high-fat diet rats, red yeast rice 0.5 and 2 g/day, Monascinol 3 mg/day): decrease
content of B. thetaiotaomicron in the intestines [7, 12]: most significant
intestinal abundance of Dubosiella newyorkensis [7, 12]: increase
bacterial abundance of Bifidobacteriales in the intestine [7, 13]: increased
intestinal abundance of Verrucomicrobiales [7, 13]: increased
intestinal abundance of Eubacteriales ([7]; order level, FIG. 8, HF group 50.14%, NOR 35.07%, MSol: Monascinol adult 3 mg/day, 8 weeks, high-fat diet rats): 43.21%
abundance of Bacteroidetes [7, 14]: increase
abundance of Firmicutes [7, 14]: decrease
abundance of A. muciniphila ([7]; species level, FIG. 7F, high-fat diet-induced obesity rats, red yeast rice 0.5 and 2 g/day, Monascinol 3 mg/day): increased
